Data set [1] in a line: Metabolic stability in human liver microsomes. It counts as in vitro ADME. Particulars: 0.5 μM test substance, NADPH, 37° C., scaled microsomal clearance, examples marked * tested as fumarate salts. How it is done: Metabolic stability was determined as follows:
0.5 μM test substance was preincubated together with human liver microsomes (0.25 mg of microsomal protein/[…]) in 0.05 M potassium phosphate buffer of pH 7.4 in microtiter plates at 37° C. for 5 min. The reaction was started by adding NADPH (1.0 mM). After 0, 5, 10, 15, 20 and 30 min the reaction was stopped and cooled with twice the amount of quench solution consisting of acetonitrile/methanol 1:1, and containing 0.2 μM carbutamide. The samples were frozen until analyzed. The remaining concentration of undegraded test substance was determined by LC MSMS. The half-life (T1/2) was determined from the gradient of the signal of test substance/unit time plot, al-lowing to calculate the half-life of the test substance, assuming first order kinetics, from the de-crease in the concentration of the compound with time. The microsomal clearance (mClint) was calculated as follows: mClint=((ln(2)/t1/2)/Microsomal Protein Concentration (mg/ml))*1000, leading to the unit of uL/min/mg. The scaled clearance (mClin_scaled) was calculated as mCLint_scaled=m CLint*(Microsomal Yield (mg/kg BW))/1000000*60, leading to the units L/hr/kg. The Microsomal Yield is defined by the specifics of the used microsomes. Calculations were modified from references: Di, The Society for Biomolecular Screening, 2003, 453-462; Obach, DMD, 1999 vol 27. N 11, 1350-1359.

The target of data set [2] is human GlyT1c transporter (Homo sapiens (Human), UniProt P48067). As to the kind of experiment: Radioligand binding assay using recombinant CHO cell membranes expressing human GlyT1. Particulars: examples marked * tested as fumarate salts, read-out: radioligand binding Kiapp.
human GlyT1c transporter, sequence (P48067 whole entry): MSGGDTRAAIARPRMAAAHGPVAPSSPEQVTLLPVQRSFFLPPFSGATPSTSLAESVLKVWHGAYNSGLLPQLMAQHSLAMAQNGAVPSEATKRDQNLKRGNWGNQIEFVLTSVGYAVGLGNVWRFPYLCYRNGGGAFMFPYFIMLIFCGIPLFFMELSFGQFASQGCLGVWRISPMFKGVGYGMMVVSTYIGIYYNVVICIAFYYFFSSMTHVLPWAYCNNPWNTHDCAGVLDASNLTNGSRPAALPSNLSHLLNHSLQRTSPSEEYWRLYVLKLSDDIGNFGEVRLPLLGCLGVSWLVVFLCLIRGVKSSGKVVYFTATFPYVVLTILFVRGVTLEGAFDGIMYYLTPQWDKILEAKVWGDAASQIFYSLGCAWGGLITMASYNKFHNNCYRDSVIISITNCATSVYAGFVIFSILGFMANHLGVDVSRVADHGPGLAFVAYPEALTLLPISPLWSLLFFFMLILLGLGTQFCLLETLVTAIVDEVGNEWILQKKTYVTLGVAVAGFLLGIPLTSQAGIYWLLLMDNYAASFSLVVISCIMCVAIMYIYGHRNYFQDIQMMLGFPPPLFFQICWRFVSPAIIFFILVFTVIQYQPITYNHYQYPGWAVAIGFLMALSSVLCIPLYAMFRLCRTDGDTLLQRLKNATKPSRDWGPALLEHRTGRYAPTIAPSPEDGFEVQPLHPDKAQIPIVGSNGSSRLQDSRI

The values below come from patent US9586945B2, “Aminochromane, aminothiochromane and amino-1,2,3,4-tetrahydroquinoline derivatives, pharmaceutical compositions containing them, and their use in therapy” (AbbVie Deutschland GmbH & Co. KG, priority 2013, dated 2017).

Bounds are passed on as bounds.

Turning to `CNC1COc2ccc(N3CC(NS(=O)(=O)CC4CC4)C3)cc2C1Cc1ccccc1` (single isomer, unassigned) [Example 24, Cis-N-(1-(4-benzyl-3-(methylamino)chroman-6-yl)azetidin-3-yl)-1-cyclopropylmethanesulfonamide], in data set [1], the “human mCl” value is “≦50 L/h/Kg”. In data set [2], the Ki was no more than 10 nM.
For `CCCS(=O)(=O)NC1CN(c2ccc3c(c2)C(Cc2ccccc2)C(NC)CO3)C1` (single isomer, unassigned) [Example 23, Cis-N-(1-(4-benzyl-3-(methylamino)chroman-6-yl)azetidin-3-yl)propane-1-sulfonamide], the “human mCl” value in data set [1] was “≦50 L/h/Kg”. Besides, the Ki in data set [2] was no more than 1000 nM.
As for `CCCS(=O)(=O)NC1CN(c2ccc3c(c2)[C@H](Cc2ccccc2)[C@H](N(CC)CC)CO3)C1` (relative stereo) [Example 30, Cis-N-(1-(4-benzyl-3-(diethylamino)chroman-6-yl)azetidin-3-yl)propane-1-sulfonamide], the “human mCl” value in data set [1] is reported as “≦50 L/h/Kg”. Besides, the Ki in data set [2] was no more than 100 nM.
Regarding `CCCS(=O)(=O)NC1CN(c2ccc3c(c2)C(Cc2ccccc2)C(NC)CO3)C1` (single isomer, unassigned) [Example 22, Cis-N-(1-(4-benzyl-3-(methylamino)chroman-6-yl)azetidin-3-yl)propane-1-sulfonamide], the “human mCl” value in data set [1] is given as “≦5 L/h/Kg”. For the same compound, the Ki in data set [2] was no more than 10 nM.
As for `O=S(=O)(NC1CN(c2cc3c(cc2F)OC[C@@H](N2CCC2)[C@H]3Cc2ccccc2)C1)c1cncc(F)c1` (relative stereo) [Example 26, Cis-1-(4-benzyl-7-fluoro-6-(3-(5-fluoropyridine-3-sulfonamido)azetidin-1-yl)chroman-3-yl)azetidin-1-ium (E)-3-carboxyacrylate], in data set [1], the “human mCl” value is listed as “≦50 L/h/Kg”. In addition, the Ki in data set [2] is no more than 100 nM.
Take `CCCS(=O)(=O)NC1CN(c2ccc3c(c2)[C@H](Cc2ccccc2)[C@H](NCC2CC2)CO3)C1` (relative stereo) [Example 31, Cis-N-(1-(4-benzyl-3-((cyclopropylmethyl)amino)chroman-6-yl)azetidin-3-yl)propane-1-sulfonamide]: the “human mCl” value in data set [1] is given as “≦5 L/h/Kg”. Also, in data set [2], the Ki is no more than 1000 nM.
`N[C@@H]1COc2ccc(N3CC(NS(=O)(=O)CC4CC4)C3)cc2[C@@H]1Cc1ccccc1` (relative stereo) [Example 21, Cis-N-(1-(3-amino-4-benzylchroman-6-yl)azetidin-3-yl)-1-cyclopropylmethanesulfonamide]: the “human mCl” value in data set [1] is recorded as “≦5 L/h/Kg”. In addition, the Ki in data set [2] was no more than 10 nM.
For `CCCS(=O)(=O)NC1CN(c2ccc3c(c2)[C@H](Cc2ccccc2)[C@H](N2CCC2)CO3)C1` (relative stereo) [Example 3, Cis-N-(1-(3-(azetidin-1-yl)-4-benzylchroman-6-yl)azetidin-3-yl)propane-1-sulfonamide], the “human mCl” value in data set [1] is recorded as “≦5 L/h/Kg”. Further, the Ki in data set [2] was no more than 100 nM.
As for `Cn1cc(S(=O)(=O)NC2CN(c3ccc4c(c3)[C@H](Cc3ccccc3)[C@H](N3CCC3)CO4)C2)nn1` (relative stereo) [Example 6, Cis-N-(1-(3-(azetidin-1-yl)-4-benzylchroman-6-yl)azetidin-3-yl)-1-methyl-1H-1,2,3-triazole-4-sulfonamide], the “human mCl” value in data set [1] is recorded as “≦5 L/h/Kg”. For the same compound, the Ki in data set [2] is no more than 10 nM.
In the case of `Cn1cnc(S(=O)(=O)NC2CN(c3ccc4c(c3)C(Cc3ccccc3)C(N3CCC3)CO4)C2)c1` (stereo not drawn) [Example 1, N-[1-[3-(azetidin-1-yl)-4-benzyl-chroman-6-yl]azetidin-3-yl]-1-methyl-imidazole-4-sulfonamide], the “human mCl” value in data set [1] is “≦5 L/h/Kg”. Moreover, in data set [2], the Ki was no more than 10 nM.
For the compound `Cn1cc(S(=O)(=O)NC2CN(c3ccc4c(c3)[C@H](Cc3ccccc3)[C@H](N3CCC3)CO4)C2)cn1` (relative stereo) [Example 5, Cis-N-(1-(3-(azetidin-1-yl)-4-benzylchroman-6-yl)azetidin-3-yl)-1-methyl-1H-pyrazole-4-sulfonamide], the “human mCl” value in data set [1] is reported as “≦5 L/h/Kg”. Moreover, the Ki in data set [2] is no more than 100 nM.
The matching figures for `O=S(=O)(NC1CN(c2ccc3c(c2)[C@H](Cc2ccccc2)[C@H](N2CCC2)CO3)C1)c1cccnc1F` (relative stereo) [Example 10, Cis-N-(1-(3-(azetidin-1-yl)-4-benzylchroman-6-yl)azetidin-3-yl)-2-fluoropyridine-3-sulfonamide]: “≦5 L/h/Kg” and no more than 100 nM.
For `CCCS(=O)(=O)NC1CN(c2ccc3c(c2)C(Cc2ccccc2)C(NC)CO3)C1` (racemic) [Example 11, Cis-N-(1-(4-benzyl-3-(methylamino)chroman-6-yl)azetidin-3-yl)propane-1-sulfonamide] the same measures were “≦5 L/h/Kg” and no more than 10 nM.
For `CNC1COc2ccc(N3CC(NS(=O)(=O)CC4CC4)C3)cc2C1Cc1ccccc1` (racemic) [Example 13, Cis-N-(1-(4-benzyl-3-(methylamino)chroman-6-yl)azetidin-3-yl)-1-cyclopropylmethanesulfonamide] the same measures were “≦5 L/h/Kg” and no more than 10 nM.
For `CCCS(=O)(=O)NC1CN(c2ccc3c(c2)[C@H](Cc2ccccc2)[C@H](NC2CCC2)CO3)C1` (relative stereo) [Example 32, Cis-N-(1-(4-benzyl-3-(cyclobutylamino)chroman-6-yl)azetidin-3-yl)propane-1-sulfonamide], the “human mCl” value in data set [1] is recorded as “≦5 L/h/Kg”. Also, the Ki in data set [2] was no more than 1000 nM.
For `O=S(=O)(NC1CN(c2cc3c(cc2F)OC[C@@H](N2CCC2)[C@H]3Cc2ccccc2)C1)c1cccnc1F` (relative stereo) [Example 8, Cis-N-(1-(3-(azetidin-1-yl)-4-benzyl-7-fluorochroman-6-yl)azetidin-3-yl)-2-fluoropyridine-3-sulfonamide] the same measures were “≦50 L/h/Kg” and no more than 1000 nM.
For `CCS(=O)(=O)NC1CN(c2ccc3c(c2)[C@H](Cc2ccccc2)[C@H](N2CCC2)CO3)C1` (relative stereo) [Example 2, Cis-N-(1-(3-(azetidin-1-yl)-4-benzylchroman-6-yl)azetidin-3-yl)ethanesulfonamide] the same measures were “≦5 L/h/Kg” and no more than 1000 nM.
For `CNC1COc2ccc(N3CC(NS(=O)(=O)CC4CC4)C3)cc2C1Cc1ccccc1` (single isomer, unassigned) [Example 25, Cis-N-(1-(4-benzyl-3-(methylamino)chroman-6-yl)azetidin-3-yl)-1-cyclopropylmethanesulfonamide] the same measures were “≦5 L/h/Kg” and no more than 1000 nM.
Regarding `O=S(=O)(CC1CC1)NC1CN(c2ccc3c(c2)[C@H](Cc2ccccc2)[C@H](N2CCC2)CO3)C1` (relative stereo) [Example 4, Cis-N-(1-(3-(azetidin-1-yl)-4-benzylchroman-6-yl)azetidin-3-yl)-1-cyclopropylmethanesulfonamide], the “human mCl” value in data set [1] is given as “≦5 L/h/Kg”. Moreover, the Ki in data set [2] was no more than 100 nM.
For `CCS(=O)(=O)NC1CN(c2ccc3c(c2)[C@H](Cc2ccccc2)[C@H](NC)CO3)C1` (relative stereo) [Example 12, Cis-N-(1-(-4-benzyl-3-(methylamino)chroman-6-yl)azetidin-3-yl)ethanesulfonamide] the same measures were “≦5 L/h/Kg” and no more than 100 nM.
As for `CCCS(=O)(=O)NC1CN(c2cc3c(cc2F)OCC(NC)C3Cc2ccccc2)C1` (single isomer, unassigned) [Example 27, Cis-N-(1-(4-benzyl-7-fluoro-3-(methylamino)chroman-6-yl)azetidin-3-yl)propane-1-sulfonamide], the “human mCl” value in data set [1] is recorded as “≦50 L/h/Kg”. Further, in data set [2], the Ki is no more than 10 nM.
For `CCCN[C@@H]1COc2ccc(N3CC(NS(=O)(=O)CCC)C3)cc2[C@@H]1Cc1ccccc1` (relative stereo) [Example 29, Cis-N-(1-(4-benzyl-3-(propylamino)chroman-6-yl)azetidin-3-yl)propane-1-sulfonamide], the “human mCl” value in data set [1] is “≦5 L/h/Kg”. The Ki in data set [2] was no more than 100 nM.
For `CCCS(=O)(=O)NC1CN(c2cc3c(cc2F)OCC(NC)C3Cc2ccccc2)C1` (single isomer, unassigned) [Example 28, Cis-N-(1-(4-benzyl-7-fluoro-3-(methylamino)chroman-6-yl)azetidin-3-yl)propane-1-sulfonamide] the same measures were “≦5 L/h/Kg” and no more than 100 nM.
The matching figures for `O=S(=O)(NC1CN(c2cc3c(cc2F)OC[C@@H](N2CCC2)[C@H]3Cc2ccccc2)C1)c1cccnn1` (relative stereo) [Example 9, Cis-N-(1-(3-(azetidin-1-yl)-4-benzyl-7-fluorochroman-6-yl)azetidin-3-yl)pyridazine-3-sulfonamide]: “≦50 L/h/Kg” and no more than 1000 nM.
